Among the data in US20230203098A1, “HUMAN TRANSFERRIN RECEPTOR BINDING PEPTIDE” (priority 2020, published 2023) are Kd values, retold here.

Read-outs that look alike come from different tables or passages of the source. Where a SMILES comes first, the peptide text is derived from it. Bridges are numbered along the chain shown (N, C = ends). [ ]: non-standard residue; d: D form. PEG12 = NCCOCCOCCOCCOCCOCCOCCOCCOCCOCCOCCOCCOCCC(=O)O; NMePhe(3-Cl) = CN[C@@H](Cc1cccc(Cl)c1)C(=O)O; NMeW = CN[C@@H](Cc1c[nH]c2ccccc12)C(=O)O; Lys(N3) = [N-]=[N+]=NCCCC[C@H](N)C(=O)O; NMeY = CN[C@@H](Cc1ccc(O)cc1)C(=O)O; NMeF = CN[C@@H](Cc1ccccc1)C(=O)O; Ahp(2) = CCCCC[C@H](N)C(=O)O; Chg = N[C@H](C(=O)O)C1CCCCC1; PEG4 = NCCOCCOCCOCCOCCC(=O)O; Abu = CC[C@H](N)C(=O)O; Aib = CC(C)(N)C(=O)O

What is called Kd is a measure of binding affinity in units of concentration.

The experiment addresses transferrin receptor (hTfR) (Homo sapiens, UniProt P02786). Kind of experiment: Intermolecular interaction evaluation test between transferrin receptor (hTfR) and peptide by surface plasmon resonance (SPR). Type of experiment: binding. The essentials: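 hTfR captured on Ni-NTA chip then amine-coupled; peptides run single-cycle kinetics at 5–100 nM in 10 mM HEPES pH 8.0, 150 mM NaCl, 0.05% Tween 20, 0.1% BSA, 1.0% DMSO. KD from least-squares curve fitting of sensorgrams.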

The mark [1] stands for this setting: binding to hTfR by SPR, Table 2 peptides, read-out: KD value (SPR) class.
Setting [2] is: surface plasmon resonance, hTfR, read-out: KD value for hTfR by SPR (class symbol).
The mark [3] stands for this setting: SPR, peptides, linker-added peptides and FITC conjugates, Patent ID 203-230, read-out: KD.
[4] abbreviates: surface plasmon resonance, peptide vs hTfR, read-out: KD value, hTfR binding by SPR (class symbol).

Sequence of transferrin receptor (hTfR) (P02786 whole entry): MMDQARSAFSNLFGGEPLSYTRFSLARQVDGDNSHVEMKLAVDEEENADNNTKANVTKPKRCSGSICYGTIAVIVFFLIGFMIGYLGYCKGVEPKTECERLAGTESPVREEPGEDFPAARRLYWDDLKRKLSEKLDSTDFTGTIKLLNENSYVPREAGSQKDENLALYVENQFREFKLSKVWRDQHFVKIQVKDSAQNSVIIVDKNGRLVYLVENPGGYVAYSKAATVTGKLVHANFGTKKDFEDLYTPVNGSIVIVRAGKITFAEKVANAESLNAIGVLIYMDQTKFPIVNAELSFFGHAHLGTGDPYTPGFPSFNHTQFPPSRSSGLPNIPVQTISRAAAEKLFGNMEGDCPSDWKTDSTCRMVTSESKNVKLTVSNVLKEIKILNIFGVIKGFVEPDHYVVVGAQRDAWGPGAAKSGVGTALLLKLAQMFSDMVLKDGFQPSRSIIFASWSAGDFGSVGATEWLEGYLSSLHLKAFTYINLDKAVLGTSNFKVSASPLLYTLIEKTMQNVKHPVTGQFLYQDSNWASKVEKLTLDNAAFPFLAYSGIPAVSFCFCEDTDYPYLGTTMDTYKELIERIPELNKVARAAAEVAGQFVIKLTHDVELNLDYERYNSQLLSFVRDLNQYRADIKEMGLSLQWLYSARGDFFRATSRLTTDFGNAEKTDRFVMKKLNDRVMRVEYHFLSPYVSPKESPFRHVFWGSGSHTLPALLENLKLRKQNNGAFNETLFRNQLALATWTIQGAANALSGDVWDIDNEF

As for `CCCCC[C@@H]1NC(=O)[C@H](CC(N)=O)NC(=O)[C@H](Cc2c[nH]c3ccccc23)NC(=O)[C@H](C(C)C)NC(=O)[C@H](Cc2ccccc2)N(C)C(=O)[C@H](C(C)C)NC(=O)[C@H](C)NC(=O)CSC[C@@H](C(=O)NCC(=O)N[C@@H](CCCCN=[N+]=[N-])C(N)=O)NC(=O)[C@H](Cc2ccc(O)cc2)N(C)C(=O)[C@H](Cc2ccc(O)cc2)NC(=O)[C@H](CCCNC(=N)N)NC(=O)[C@H](CCCNC(=N)N)NC(=O)[C@H]([C@@H](C)CC)NC(=O)[C@H]([C@@H](C)CC)NC(=O)[C@H](Cc2ccc(O)cc2)NC1=O` [compound 276] ({CH2CO}-AV[NMeF]VWN[Ahp(2)]YIIRRY[NMeY]CG[Lys(N3)]-NH2; thioether N-15), the Kd under setting [1] was in the range of 100 to 1000 nM.

With `CC[C@H](C)[C@@H]1NC(=O)[C@H](Cc2ccc(OC)cc2)NC(=O)[C@H](Cc2ccc(O)cc2)NC(=O)[C@H](CC(N)=O)NC(=O)[C@H](Cc2c[nH]c3ccccc23)N(C)C(=O)[C@H](C(C)C)NC(=O)[C@H](Cc2cccc(Cl)c2)N(C)C(=O)[C@H](C(C)C)NC(=O)[C@H](C)NC(=O)CSC[C@@H](C(N)=O)NC(=O)[C@H](Cc2ccc(O)cc2)N(C)C(=O)[C@H](Cc2ccccc2)NC(=O)[C@H](CCCNC(=N)N)NC(=O)[C@H](CCCCN)NC(=O)[C@H]([C@@H](C)CC)NC1=O` [compound 371], the Kd under setting [2] is less than 1 nM.

Take `CC[C@H](C)[C@@H]1NC(=O)[C@H](Cc2ccc(OC)cc2)NC(=O)[C@H](Cc2ccc(O)cc2)NC(=O)[C@H](CC(N)=O)NC(=O)[C@H](Cc2c[nH]c3ccccc23)N(C)C(=O)[C@H](C(C)C)NC(=O)[C@H](Cc2cccc(Cl)c2)N(C)C(=O)[C@H](C(C)C)NC(=O)[C@H](C)NC(=O)CSC[C@@H](C(=O)N[C@H](CCC(=O)O)C(N)=O)NC(=O)[C@H](Cc2ccc(O)cc2)N(C)C(=O)[C@H](Cc2ccccc2)NC(=O)[C@@H](CCCNC(=N)N)NC(=O)C(C)(C)NC(=O)[C@H]([C@@H](C)CC)NC1=O` [compound 355]: under setting [2], the Kd lay in the range of 100 to 1000 nM.

`CC[C@H](C)[C@@H]1NC(=O)[C@H](Cc2ccc(OC)cc2)NC(=O)[C@H](Cc2ccc(O)cc2)NC(=O)[C@H](CC(N)=O)NC(=O)[C@H](Cc2c[nH]c3ccccc23)N(C)C(=O)[C@H](C(C)C)NC(=O)[C@H](Cc2cccc(Cl)c2)N(C)C(=O)[C@H](CCC(=O)O)NC(=O)[C@H](C)NC(=O)CSC[C@@H](C(N)=O)NC(=O)[C@H](CC(N)=O)NC(=O)[C@H](CCCNC(=N)N)NC(=O)[C@@H]2CCCN2C(=O)[C@H](C(C)C)NC1=O` [compound 207] ({CH2CO}-AE[NMePhe(3-Cl)]V[NMeW]NYY(Me)IVPRNC-NH2; thioether N-14): the Kd under setting [3] lay in the range of 1 to 100 nM.

In the case of `CC[C@H](C)[C@@H]1NC(=O)[C@H](Cc2ccc(OC)cc2)NC(=O)[C@H](Cc2ccc(O)cc2)NC(=O)[C@H](CC(N)=O)NC(=O)[C@H](Cc2c[nH]c3ccccc23)N(C)C(=O)[C@H](C(C)C)NC(=O)[C@H](Cc2cccc(Cl)c2)N(C)C(=O)[C@H](C(C)C)NC(=O)[C@H](C)NC(=O)CSC[C@@H](C(=O)NCCOCCOCCOCCOCCC(N)=O)NC(=O)[C@H](Cc2ccc(O)cc2)N(C)C(=O)[C@H](Cc2ccccc2)NC(=O)[C@@H](CCCNC(=N)N)NC(=O)[C@H](CCCNC(=N)N)NC(=O)C(C)(C)NC1=O` [compound 333] ({CH2CO}-AV[NMePhe(3-Cl)]V[NMeW]NYY(Me)I[Aib]R[dR]F[NMeY]C[PEG4]-NH2; thioether N-15), the Kd under setting [4] fell in the range of 1 to 100 nM.

In the case of `CC[C@H](C)[C@@H]1NC(=O)[C@H](Cc2ccc(O)cc2)NC(=O)[C@H](Cc2ccc(O)cc2)NC(=O)[C@H](CC(N)=O)NC(=O)[C@H](Cc2c[nH]c3ccccc23)NC(=O)[C@H](C(C)C)NC(=O)[C@H](Cc2ccccc2)NC(=O)[C@H](C(C)C)NC(=O)[C@H](C)NC(=O)CSC[C@@H](C(=O)NCC(=O)NCC(=O)N[C@@H](CO)C(=O)NCC(=O)N[C@@H](CO)C(=O)NCC(=O)N[C@@H](CCCCNC(=O)C2CCC(CN3C(=O)C=CC3=O)CC2)C(N)=O)NC(=O)[C@H](Cc2ccc(O)cc2)NC(=O)[C@H](Cc2ccccc2)NC(=O)[C@H](CCCNC(=N)N)NC(=O)[C@H](CCCNC(=N)N)NC(=O)[C@H]([C@@H](C)CC)NC1=O` (some centres unmarked) [compound 262], the Kd under setting [1] lay within 100 to 1000 nM.

With `CC[C@H](C)[C@@H]1NC(=O)[C@H](Cc2ccc(O)cc2)NC(=O)[C@H](Cc2ccc(O)cc2)NC(=O)[C@H](CC(N)=O)NC(=O)[C@H](Cc2c[nH]c3ccccc23)N(C)C(=O)[C@H](C(C)C)NC(=O)[C@H](Cc2cccc(Cl)c2)N(C)C(=O)[C@@H]2CCC(=O)N3CCC[C@@H]3C(=O)NCCCC[C@H](NC(=O)[C@H]([C@@H](C)CC)NC1=O)C(=O)N[C@@H](CCCNC(=N)N)C(=O)N[C@@H](Cc1ccc(O)cc1)C(=O)N(C)[C@@H](Cc1ccc(O)cc1)C(=O)N[C@H](C(N)=O)CSCC(=O)N[C@@H](C)C(=O)N2` [compound 416], the Kd (surface plasmon resonance, peptide vs hTfR, read-out: KD value for hTfR by SPR (class symbol)) lay within 1 to 100 nM.

For `CC[C@@H]1NC(=O)[C@H]([C@@H](C)CC)NC(=O)[C@H](Cc2ccc(OC)cc2)NC(=O)[C@H](Cc2ccc(O)cc2)NC(=O)[C@H](CC(N)=O)NC(=O)[C@H](Cc2c[nH]c3ccccc23)N(C)C(=O)[C@H](C(C)C)NC(=O)[C@H](Cc2cccc(Cl)c2)N(C)C(=O)[C@H](C(C)C)NC(=O)[C@H](C)NC(=O)CSC[C@@H](C(=O)NCCOCCOCCOCCOCCC(N)=O)NC(=O)[C@H](Cc2ccc(O)cc2)N(C)C(=O)[C@H](Cc2ccccc2)NC(=O)[C@@H](CCCNC(=N)N)NC(=O)[C@H](CCCNC(=N)N)NC1=O` [compound 325] ({CH2CO}-AV[NMePhe(3-Cl)]V[NMeW]NYY(Me)I[Abu]R[dR]F[NMeY]C[PEG4]-NH2; thioether N-15), the Kd under setting [4] was 1 to 100 nM.

Take `CC[C@H](C)[C@@H]1NC(=O)[C@H](Cc2ccc(O)cc2)NC(=O)[C@H](Cc2ccc(O)cc2)NC(=O)[C@H](CC(N)=O)NC(=O)[C@H](Cc2c[nH]c3ccccc23)N(C)C(=O)[C@H](C(C)C)NC(=O)[C@H](Cc2ccccc2)NC(=O)[C@H](C(C)C)NC(=O)[C@H](C)NC(=O)CSC[C@@H](C(=O)NCC(=O)N[C@@H](CO)C(=O)N[C@@H](CO)C(=O)NCC(=O)N[C@@H](CO)C(=O)N[C@@H](CO)C(=O)N[C@@H](CCCCNC(=O)C2CCC(CN3C(=O)C=CC3=O)CC2)C(N)=O)NC(=O)[C@H](Cc2ccc(O)cc2)N(C)C(=O)[C@H](Cc2ccc(O)cc2)NC(=O)[C@H](CCCNC(=N)N)NC(=O)[C@H](CCCNC(=N)N)NC(=O)[C@H]([C@@H](C)CC)NC1=O` (some centres unmarked) [compound 197]: the Kd (hTfR binding by SPR, hTfR No. 894 variant peptides, linker-added peptides and payload conjugates (Table 2), read-out: KD value obtained from the SPR measurement) was 1 to 100 nM.

As to `CC[C@H](C)[C@@H]1NC(=O)[C@H](C2CCCCC2)NC(=O)[C@H](Cc2ccc(O)cc2)NC(=O)[C@H](Cc2ccc(O)cc2)NC(=O)[C@H](CC(N)=O)NC(=O)[C@H](Cc2c[nH]c3ccccc23)NC(=O)[C@H](C2CCCCC2)NC(=O)[C@H](Cc2ccccc2)N(C)C(=O)[C@H](C(C)C)NC(=O)[C@H](C)NC(=O)CSC[C@@H](C(=O)NCCOCCOCCOCCOCCOCCOCCOCCOCCOCCOCCOCCOCCC(N)=O)NC(=O)[C@H](Cc2ccc(O)cc2)N(C)C(=O)[C@H](Cc2ccc(O)cc2)NC(=O)[C@H](CCCNC(=N)N)NC(=O)[C@H](CCCNC(=N)N)NC1=O` [compound 266] ({CH2CO}-AV[NMeF][Chg]WNYY[Chg]IRRY[NMeY]C[PEG12]-NH2; thioether N-15), under setting [1], the Kd lay within 100 to 1000 nM.

Consider `CC[C@H](C)[C@@H]1NC(=O)[C@H](Cc2ccc(OC)cc2)NC(=O)[C@H](Cc2ccc(O)cc2)NC(=O)[C@H](CC(N)=O)NC(=O)[C@H](Cc2c[nH]c3ccccc23)N(C)C(=O)[C@H](C(C)C)NC(=O)[C@H](Cc2cccc(Cl)c2)N(C)C(=O)[C@H](C(C)C)NC(=O)[C@H](C)NC(=O)CSC[C@@H](C(N)=O)NC(=O)[C@H](Cc2ccc(O)cc2)N(C)C(=O)[C@H](Cc2cccc(C(=O)O)c2)NC(=O)[C@@H](CCCNC(=N)N)NC(=O)[C@H](CCCNC(=N)N)NC(=O)[C@H]([C@@H](C)CC)NC1=O` [compound 461], for which the Kd (SPR, hTfR, class symbols A-D, read-out: KD) is 1 to 100 nM.

For `CC[C@H](C)[C@@H]1NC(=O)[C@H](Cc2ccc(OC)cc2)NC(=O)[C@H](Cc2ccc(O)cc2)NC(=O)[C@H](CC(N)=O)NC(=O)[C@H](Cc2c[nH]c3ccccc23)N(C)C(=O)[C@H](C(C)C)NC(=O)[C@H](Cc2cccc(Cl)c2)N(C)C(=O)[C@H](C(C)C)NC(=O)[C@H](C)N(C)C(=O)CSC[C@@H](C(N)=O)NC(=O)[C@H](Cc2ccc(O)cc2)N(C)C(=O)[C@H](Cc2ccccc2)NC(=O)[C@H](CCCNC(=N)N)NC(=O)[C@H](CCCCN)NC(=O)[C@H]([C@@H](C)CC)NC1=O` [compound 213], under setting [3], the Kd is 1 to 100 nM.

For the compound `CC[C@H](C)[C@@H]1NC(=O)[C@H](Cc2ccc(O)cc2)NC(=O)[C@H](Cc2ccc(O)cc2)NC(=O)[C@H](CC(N)=O)NC(=O)[C@H](Cc2c[nH]c3ccccc23)N(C)C(=O)[C@H](C(C)C)NC(=O)[C@H](Cc2ccccc2)NC(=O)[C@H](C(C)C)NC(=O)[C@H](C)NC(=O)CSC[C@@H](C(=O)NCCOCCOCCOCCOCCC(=O)N[C@@H](CNC(=O)c2ccc(-c3c4ccc(=O)cc-4oc4cc(O)ccc34)c(C(=O)O)c2)C(N)=O)NC(=O)[C@H](Cc2ccc(O)cc2)N(C)C(=O)[C@H](Cc2ccc(O)cc2)NC(=O)[C@H](CCCNC(=N)N)NC(=O)[C@H](CCCNC(=N)N)NC(=O)[C@H]([C@@H](C)CC)NC1=O` [compound 163], under “SPR, linker and payload (FITC, VivoTag) conjugates, read-out: KD”, the Kd was 1 to 100 nM.

In the case of `CC[C@H](C)[C@@H]1NC(=O)[C@H](Cc2ccc(O)cc2)NC(=O)[C@H](Cc2ccc(O)cc2)NC(=O)[C@H](CC(N)=O)NC(=O)[C@H](Cc2c[nH]c3ccccc23)NC(=O)[C@H](C(C)C)NC(=O)[C@H](Cc2ccccc2)N(C)C(=O)[C@H](C(C)C)NC(=O)[C@H](C)NC(=O)CSC[C@@H](C(=O)NCC(=O)N[C@@H](CCCCN)C(N)=O)NC(=O)[C@H](Cc2ccc(O)cc2)N(C)C(=O)[C@H](Cc2ccc(O)cc2)NC(=O)[C@H](CCCNC(=N)N)NC(=O)[C@H](CCCCN)NC(=O)[C@H]([C@@H](C)CC)NC1=O` [compound 526], the Kd (SPR, hTfR, class symbols A-D, read-out: KD (column without head, continuation of the table series)) lay in the range of 1 to 100 nM.
